Laboratory results from the supplement of paper PMC10307832.

Experiments:
Assay in all cases: relative viability (nuclei count vs DMSO), 5 days (fraction); higher = more cells survive
ALW-II-49-7 + Bortezomib = compound: Cc1ccc(C(=O)Nc2cccc(C(F)(F)F)c2)cc1Nc1cncc(C(N)=O)c1 [ALW-II-49-7] + CC(C)C[C@H](NC(=O)[C@H](Cc1ccccc1)NC(=O)c1cnccn1)B(O)O [Bortezomib] (partner 0.002 µM)
Method in brief: (§1)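 Lung cancer cell lines in 1536-well plates got either a single drug or a fixed anchor-drug dose together with five library-drug doses (not always all listed) in √10 steps, by pin tool, on the day after seeding. Nuclei were counted after 5 days, and relative viability is the treated-to-vehicle ratio of nuclei counts. Values are medians of duplicate plates.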

XMD13-2 + Alpelisib = compound: C1CC1C(=O)NC2=NNC3=C2C=CC(=C3)C4=CC(=CC=C4)C(=O)NC5CC5 [XMD13-2] + Cc1nc(NC(=O)N2CCC[C@H]2C(N)=O)sc1-c1ccnc(C(C)(C)C(F)(F)F)c1 [Alpelisib] (partner 2 µM)
Method in brief: as §1

XMD13-2 + Olaparib = compound: C1CC1C(=O)NC2=NNC3=C2C=CC(=C3)C4=CC(=CC=C4)C(=O)NC5CC5 [XMD13-2] + O=C(c1cc(Cc2n[nH]c(=O)c3ccccc23)ccc1F)N1CCN(C(=O)C2CC2)CC1 [Olaparib] (partner 8 µM)
Method in brief: as §1

Dasatinib + Pemetrexed = compound: Cc1nc(Nc2ncc(C(=O)Nc3c(C)cccc3Cl)s2)cc(N2CCN(CCO)CC2)n1 [Dasatinib] + Nc1nc2[nH]cc(CCc3ccc(C(=O)N[C@@H](CCC(=O)O)C(=O)O)cc3)c2c(=O)[nH]1 [Pemetrexed] (partner 0.2 µM)
Method in brief: as §1

| Cell Line | relative viability (ALW-II-49-7 + Bortezomib; first compound 0.08 µM) | relative viability (ALW-II-49-7 + Bortezomib; first compound 0.253 µM) | relative viability (ALW-II-49-7 + Bortezomib; first compound 0.8 µM) | relative viability (ALW-II-49-7 + Bortezomib; first compound 2.53 µM) | relative viability (ALW-II-49-7 + Bortezomib; first compound 8 µM) | relative viability (XMD13-2 + Alpelisib; first compound 0.05 µM) | relative viability (XMD13-2 + Alpelisib; first compound 0.1581 µM) | relative viability (XMD13-2 + Alpelisib; first compound 0.5 µM) | relative viability (XMD13-2 + Alpelisib; first compound 1.581 µM) | relative viability (XMD13-2 + Alpelisib; first compound 5 µM) | relative viability (XMD13-2 + Olaparib; first compound 0.05 µM) | relative viability (XMD13-2 + Olaparib; first compound 0.1581 µM) | relative viability (XMD13-2 + Olaparib; first compound 0.5 µM) | relative viability (XMD13-2 + Olaparib; first compound 1.581 µM) | relative viability (XMD13-2 + Olaparib; first compound 5 µM) | relative viability (Dasatinib + Pemetrexed; first compound 0.005 µM) | relative viability (Dasatinib + Pemetrexed; first compound 0.01581 µM) | relative viability (Dasatinib + Pemetrexed; first compound 0.05 µM) | relative viability (Dasatinib + Pemetrexed; first compound 0.1581 µM) | relative viability (Dasatinib + Pemetrexed; first compound 0.5 µM) |
| --- | --- | --- | --- | --- | --- | --- | --- | --- | --- | --- | --- | --- | --- | --- | --- | --- | --- | --- | --- | --- |
| 201T | 1.1 | 1.13 | 1.09 | 1.08 | 1.06 | 1.07 | 1.03 | 0.945 | 1 | 1.07 | 0.851 | 0.866 | 0.856 | 0.811 | 0.876 | 0.404 | 0.332 | 0.31 | 0.292 | 0.268 |
| A549 |  |  |  |  |  | 1.05 | 0.709 | 0.812 | 0.714 | 0.952 | 0.415 | 0.185 | 0.453 | 0.358 | 0.437 |  |  |  |  |  |
| A-427 | 1.1 | 0.95 | 0.967 | 1.02 | 1.05 | 1.19 | 1.05 | 1.02 | 0.949 | 0.965 | 0.814 | 0.688 | 0.728 |  | 0.485 | 0.972 | 0.832 | 0.807 | 0.556 | 0.619 |
| ABC-1 | 0.414 | 0.34 | 0.31 | 0.318 | 0.287 | 1.29 | 1.15 | 0.893 | 0.928 | 0.998 | 0.925 | 0.869 | 1.08 |  | 0.688 |  |  |  |  |  |
| BEN | 0.851 | 0.828 | 0.789 |  | 0.875 | 1.29 | 1.03 | 1 | 1.03 | 1.11 | 0.925 | 0.94 | 0.941 | 1.12 | 0.995 | 0.596 | 0.572 | 0.511 | 0.478 | 0.448 |
| CAL-12T | 0.923 |  |  | 0.978 | 0.721 | 1.31 | 1.18 | 1.24 | 1.11 | 1.4 | 0.694 | 0.799 | 0.708 | 0.695 | 0.697 | 1.23 | 1.2 | 1.27 | 0.929 | 0.479 |
| COR-L23 | 1.13 | 0.784 | 0.95 | 0.866 | 1.11 | 0.931 | 0.77 | 0.951 | 0.741 | 0.805 | 0.327 | 0.36 | 0.33 | 0.336 | 0.387 | 0.211 | 0.196 | 0.19 | 0.19 | 0.18 |
| COR-L 105 | 0.802 | 0.681 | 0.826 | 0.587 | 0.767 | 1.06 | 1.36 | 0.984 | 0.964 | 0.945 | 0.606 | 0.678 | 0.656 | 0.564 | 0.759 | 0.869 | 1.1 | 0.783 | 0.605 | 0.361 |
| Calu-6 | 1.18 | 0.95 | 1.04 | 0.785 | 0.885 | 1.02 | 0.948 | 1.04 | 0.923 | 0.757 | 0.615 | 0.586 |  | 0.605 | 0.512 |  |  |  |  |  |
